Key:
[1] = n-Octanol/PBS distribution coefficient (log D); format: physicochemical
Procedure: The n-octanol/PBS distribution coefficient of the five exemplified PSMA-binding agents ^177Lu-Ibu-PSMA, ^177Lu-Ibu-Dα-PSMA, ^177Lu-Ibu-Dβ-PSMA, ^177Lu-Ibu-N-PSMA and ^177Lu-Ibu-DAB-PSMA in a n-octanol/PBS system was performed in a similar manner as previously reported (Benesova, M.; Umbricht, C. A.; Schibli, R.; Müller, C. Albumin-binding PSMA ligands: optimization of the tissue distribution profile. Mol Pharm 2018, 15, (3), 934-946).

[2] = Plasma protein binding, ultrafiltration assay; format: in vitro ADME; conditions: incubated in human plasma at 37° C., read-out: fraction of radioligand retained in the filter membrane (serum protein binding) (converted)
Procedure: In short, the PSMA-ligands were labeled with ^177Lu at a specific activity of 50 MBq/nmol and incubated in human plasma samples or PBS at room temperature. The free and plasma-bound fractions were separated using a centrifree ultrafiltration device (4104 centrifugal filter units; Millipore, 30000 Da nominal molecular weight limit, methylcellulose micropartition membranes). The incubated solution was loaded to the ultrafiltration device and centrifuged at 2500 rpm for 40 min at 20° C. Samples from the filtrate were taken and analyzed for radioactivity in a γ-counter. The amount of plasma-bound radioligand was calculated as the fraction of radioactivity measured in the […] relative to the corresponding loading solution (set to 100%). The experiments were performed at least 3 times for each radioligand.
Plasma protein-binding properties of ^177Lu-Ibu-sPSMA were determined using an ultrafiltration assay according to Benesova, M. et al. (Mol Pharm 2018, 15, (3), 934-946). In short, the Ibu-sPSMA-ligand was labeled with ^177Lu at a molar activity of 50 MBq/nmol and incubated in human plasma samples or PBS at 37° C. […] Samples from the filtrate were taken and analyzed for radioactivity in a γ-counter. The amount of plasma-bound radioligand was calculated as the fraction of radioactivity measured in the […] relative to the corresponding loading solution (set to 100%). […]

[3] = Radiolytic stability; format: physicochemical; conditions: 250 MBq/500 μL saline, room temperature, with or without L-ascorbic acid
Procedure: Radiolytic stability over time was assessed for Ibu-sPSMA in three independent experiments. For this purpose, Ibu-sPSMA was labeled with ^177Lu in a volume of 120 μL at a specific activity of 50 MBq/nmol with or without the addition of L-ascorbic acid (3 mg). After quality control using HPLC (t=0, radiochemical purity ≥98%), the labeling solutions were diluted with saline to 250 MBq/500 μL and incubated at room temperature. The radioligand's integrity was determined by HPLC after 1 h, 4 h and 24 h incubation time as previously reported (Siwowska et al., Mol. Pharmaceutical 2017, 14, (2), 523-532). The HPLC chromatograms were analyzed by integration of the peaks representing the radiolabeled product, the released ^177Lu as well as degradation products of unknown structure (FIG. 15). A quantitative assessment was performed by expressing the peak area of the intact product as percentage of the sum of integrated peak areas of the entire chromatogram.

Structure (SMILES): CC(C)Cc1ccc(C(C)C(=O)NCC[C@H](NC(=O)CN2CCN(CC(=O)O)CCN(CC(=O)O)CCN(CC(=O)O)CC2)C(=O)NCC2CCC(C(=O)N[C@@H](Cc3ccc4ccccc4c3)C(=O)NCCCC[C@H](NC(=O)N[C@@H](CCC(=O)O)C(=O)O)C(=O)O)CC2)cc1 (stereo partly drawn) [^177Lu-Ibu-sPSMA, metal not drawn]
- logD [1]: -2.43 ± 0.01
- fraction unbound [2]: ~0.03
- radiolytic stability (percentage of intact radioligand up to 24 h) [3]: significantly more stable than ^177Lu-PSMA-617 and all other ibuprofen-derivatized PSMA radioligands

Source: patent US20220024882A1, “NOVEL TUMOR ANTIGEN BINDING AGENTS AND USES THEREOF” (ITM Isotopen Technologien München AG, priority 2018, published 2022)
